The test system of data set [1] is rat model of visceral pain perception. The data set can be described thus: Rat model of visceral pain perception (colorectal distension, AWR score and colorectal pressure). The data set is classed as in vivo. The protocol: A rat model of visceral pain perception, a pre-clinical model of irritable bowel syndrome, was used in the following example. Rats (male, Wistar, 200-250 g, obtained from Charles River, Monza, Italy), were housed in plastic cages and maintained under controlled conditions with 12-hours light/dark cycle with lights on at 7.00 AM. Tap water and standard laboratory chow were freely available. Before experiments, rats were individually trained by spending 2-3 hours per day in a plexiglass cage for 2-3 days. It allowed them to adjust to a movement-restriction environment. Food was withheld for 12 hours before colorectal distension (CRD) recording were performed. Experiments were performed in awake rats and were conducted in a blind manner in that the observer was not aware of the identity of drug administered to each animal.
On the testing day, rats were sedated with ether inhalation and a 2 cm long latex balloon was inserted intrarectally 2 cm from the anal verge and fixed at the base of the tail. The balloon was connected via a double-barreled cannula to a pressure transducer to continuously monitoring the rectal pressure by a computer (PowerLab PC, A.D. Instruments, Milford, Mass., USA) and to a syringe for inflation/deflation of the balloon. The rats were then housed in a small cage (20×8×8 cm) on an elevated Plexiglas™ platform and allowed to wake up and adapt for 1 hour. After recovery from sedation, animals underwent the CRD procedure and behavioral responses were tested. The night before the experiments, the balloons were inflated and left overnight so the latex stretched and the balloons became compliant.
CRD of 20 seconds, performed every 5 minutes, was applied in increment of 0.4 ml starting from 0.4 ml up to 1.6 ml water. To achieve an accurate measurement of the colonic parameters and perception, the distensions were repeated twice for each intensity and data for each animal were averaged for analysis. Each animal underwent a double set of CRD. Twenty minutes after the first sequence of CRD (0.4 mL-1.6 ml water), drugs were administered intraperitoneally (i.p.) and a second set of CRD was performed. Behavioral responses during the first and the second set of CRD were assessed and compared.
Behavioral response to CRD was assessed by measuring the abdominal withdrawal reflex (AWR) using a semi-quantitative score (1).
The effects of trimebutine maleate, nitroarginine and trimebutine nitroargininate on colonic compliance and sensitivity were determined using a total of 15 fasting rats. […]
To determine the effect of trimebutine maleate, nitroarginine and trimebutine nitroargininate on colonic smooth muscle, the compliance of the colo-rectum during CRD was obtained from intracolo-rectal volume and pressure and expressed as mL/mmHg. […]

For data set [2], the system named is abdominal pain in patients with functional bowel disorders. Conditions: especially IBS, 300 to 600 mg/day; cited from earlier work.

For the compound `NC(=S)c1ccc(C(=O)O)cc1`, the melting point (in general, the temperature, or range, at which the solid turns liquid) is 296 to 298 °C (dec.).

For `CCC(COC(=O)c1cc(OC)c(OC)c(OC)c1)(c1ccccc1)N(C)C.NC(=S)c1ccc(C(=O)O)cc1` (stereo not drawn) [trimebutine thiocarbamoylbenzoate, 3,4,5-trimethoxybenzoic acid 2-(dimethylamino)-2-phenylbutyl ester 4-thiocarbamoyl benzoate], the “reducing visceral pain in response to colorectal distension (AWR score)” value in data set [1] (rats, dose equimolar to trimebutine maleate 10 mg/kg, vs trimebutine maleate and thiocarbamoylbenzoate alone, FIGS. 5(a), 5(b)) was “more effective than either trimebutine maleate or thiocarbamoylbenzoate”.

On to `CCC(COC(=O)c1cc(OC)c(OC)c(OC)c1)(c1ccccc1)N(C)C.N=C(NCCC[C@H](N)C(=O)O)N[N+](=O)[O-]` (stereo not drawn) [trimebutine nitroargininate], for which the “reducing visceral pain in response to colorectal distension (AWR score)” value in data set [1] (Wistar rats, 16 mg/kg i.p., vs trimebutine maleate 10 mg/kg i.p. and nitroarginine 6 mg/kg, FIGS. 1(a), 2(a), 3(a)) was “more effective than either trimebutine maleate or nitroarginine”. For the same compound, the “visceral analgesic effects (AWR score) after pretreatment with L-NAME” value in data set [1] (rats, 16 mg/kg i.p., L-NAME 25 mg/kg i.v. 10 min before, FIG. 4(a)) is given as “largely abolished”. Further, the “visceral analgesic effects (AWR score) after pretreatment with methylene blue” value in data set [1] (rats, 16 mg/kg i.p., methylene blue 1 mg/kg i.p. 10 min before, FIG. 4(b)) was “largely abolished”.

Consider `CCC(COC(=O)c1cc(OC)c(OC)c(OC)c1)(c1ccccc1)N(C)C` (stereo not drawn) [Trimebutine, 3,4,5-trimethoxybenzoic acid 2-(dimethylamino)-2-phenylbutylester], for which the “treatment of abdominal pain in patients” value in data set [2] was “effective in the treatment of both acute and chronic abdominal pain”.

(Values after patent US20110144188A1, “SALTS OF T[…] N-[…] TRIMEBUTINE” (Antibe Therapeutics Inc., priority 2006, published 2011).)
